Reference: patent US8951789B2, “Mammalian artificial chromosome vector comprising human cytochrome P450 gene (cluster) and non-human mammalian animal retaining the same” (National University Corporation Tottori University, priority 2007, dated 2015)

Columns and labels:
CYP3A/Cyp3a expression = assay: Induction of CYP3A/Cyp3a expression by PCN, Western blot of liver microsome fractions
Protocol: In order to investigate the influence of pregnenolone 16α-carbonitrile (PCN) (Sigma), which is known as a substance inducing CYP3A/Cyp3a expression, on CYP3A/Cyp3a gene expression in TC(CYP3A-HACΔ)/Δcyp, Δcyp, and B6 normal mice, PCN was administered intraperitoneally for 4 days in amounts of 100 mg/kg per dose. A suspension of PCN in corn oil (Sigma) was prepared for administration.

CYP3A/Cyp3a [1] = assay: Midazolam metabolites in mouse liver microsomes by LC-MS/MS; details: 10 μM midazolam
Protocol: (§1) In order to investigate whether or not a human-specific metabolite of midazolam, which is known to be metabolized by CYP3A/Cyp3a, is observed in the TC (CYP3A-HACΔ)/Δcyp mouse as in the case of a human, microsomes derived from the liver of the TC(CYP3A-HACΔ)/Δcyp mouse, the Δcyp mouse, the B6 normal mouse, and the human were allowed to react with midazolam, and mass analysis was carried out via LC-MS/MS in the following manner. […] The reaction was terminated with the addition of acetonitrile, the mixture was centrifuged at 3,000 rpm for 5 minutes, and the supernatant was separated. The solvent was removed therefrom by distillation under a nitrogen stream at 40° C., the dried extract was redissolved in acetonitrile, and mass analysis was carried out by LC-MS/MS

CYP3A/Cyp3a [2] = assay: Midazolam metabolites in human liver microsomes by LC-MS/MS; details: 10 μM midazolam, 37° C. 30 minutes
Protocol: as §1

Compound | CYP3A expression level compared with corn oil mice of the same strain (CYP3A/Cyp3a expression; B6 normal mice, 100 mg/kg intraperitoneally for 4 days, liver on day 5) | CYP3A expression (CYP3A/Cyp3a expression; mouse, in vivo, ip, 100 mg/kg) | CYP3A expression level compared with corn oil mice of the same strain (CYP3A/Cyp3a expression; mouse, in vivo, ip, 100 mg/kg) | metabolic activity (triazolam hydroxylation) of liver microsomes, PCN-administered versus corn oil-administered mice (CYP3A4) [times] | human-specific metabolite (10.22) (CYP3A/Cyp3a [1]; TC(CYP3A-HACΔ)/Δcyp mouse liver microsomes, 37° C. 30 minutes) | main metabolite (10.62) (CYP3A/Cyp3a [1]; all microsomes (TC(CYP3A-HACΔ)/Δcyp, Δcyp, B6 normal mouse, human)) | human-specific metabolite (10.22) (CYP3A/Cyp3a [2])
CC(=O)[C@H]1[C@H](C#N)C[C@H]2[C@@H]3CC=C4C[C@@H](O)CC[C@]4(C)[C@H]3CC[C@@]21C [PCN, pregnenolone 16α-carbonitrile] | elevated | not observed | elevated | 10 |  |  | 
Cc1ncc2n1-c1ccc(Cl)cc1C(c1ccccc1F)=NC2 [midazolam] |  |  |  |  | detected | detected in all microsomes | detected
